{
  "source": "patent US10172835B2",
  "about": "“Anticancer agent composition” (J-Pharma Co., Ltd., priority 2014, dated 2019)",
  "key": {"caspase 3 [1]": {"system": "caspase 3", "test": "Western blot of caspase 3 activation and PARP cleavage in primary tPTEN−/− tumor cells (KO#732)", "format": "cell-based, murine", "conditions": "primary KO#732 cells; COMPOUND-JP 5.0, 10.0 μM; PI-103 10.0 μM; rapamycin 10.0 nM; 2.0-18.0 h", "procedure": "(§1) Cell extracts were prepared using a cell lysis buffer (50 mM HEPES, pH 7.4, 150 mM NaCl, 20 mM EDTA, 100 mM NaF, 10 mM Na3VO4, 0.5% nonyl phenoxypolyethoxylethanol (NP40) supplemented with a cocktail of protease inhibitors. After SDS-PAGE separation and transfer to nitrocellulose immunoblotting was performed using the following antibodies against: Akt (Cell Signaling Technologies, #9272), CHOP (#2895), cleaved caspase 3 (#9664), c-Myc (#9402), eIF2a (#9721), 4EBP1 (#9644), LC3A/B (#12741), PARP (#9542), pJnk (T183/Y185) (#9251), pSer235-236-S6RP (#4856), pSer473-Akt (#9271), pSer65-4EBP1 (#9451) and S6RP (#2217); Bax (Sigma-Aldrich, B8429); PUMA (Abcam, ab54288); Bak (Millipore, 06536); ATF4 (Santa Cruz Biotechnologies, sc200), GADD34 (sc8327), Hsp60 (sc-1722), Hsp90 (sc-13119) and XBP1 (sc-7160); ATF6 (Imgenex, IMG-273)."}, "KO99L cells [2]": {"system": "KO99L cells", "test": "Combination studies with COMPOUND-JP, WST-1 viability, Chou-Talalay combination index", "format": "cell-based, murine", "conditions": "48 h, suboptimal concentrations, in combination with COMPOUND-JP", "description": "Combinations were analyzed by ANOVA followed by Tukey's Multiple comparison test to determine significance between experimental groups. The synergism between drugs was analyzed using the Chou-Talalay method. […] P-value <0.05 was accepted as statistically significant (*:p<0.05; **:p<0.01; ***:p<0.001). Analyses were performed using the GraphPAd Prism 3.0 software."}, "KO99L cells [3]": {"system": "KO99L cells", "test": "BrdU incorporation Elisa (proliferation) on KO99L cells", "format": "cell-based, murine", "conditions": "50.0 μM, KO99L cells", "procedure": "Two different assays were employed: i) In a 96-well plate format, cells (4.0±0.1×10^4 per well; 100 μL) were incubated with effectors (48 h, 37° C.; n=4 per experiment) and then WST-1 reagent (10 μL; Roche Diagnostics) added to each well of 96-well plates, incubated, and the formazan production was measured at 490 nm; and ii) cells (2.0±0.1×10^4 per well; 100 μL) were incubated with effectors (48 h, 37° C.; n=4 per experiment) and then bromodeoxyuridine reagent (10 μL/well; Roche Diagnostics) was added to each well and incubated (8 h, 37° C.). The cells were then fixed, denatured and incubated with anti-BrdU-conjugated with peroxidase (POD) antibody (100 μL/well). Colorimetric substrate (TMB: tetramethyl-benzidine; 100 μL/well) was added and BrdU incorporation quantified via optical density measurement (450 nm) which corresponds to DNA synthesis and proliferating cells."}, "KO99L cells [4]": {"system": "KO99L cells", "test": "Cell death by flow cytometry after DAPI staining, KO99L cells", "format": "cell-based, murine", "conditions": "50.0 μM"}, "caspase 3 [5]": {"system": "caspase 3", "test": "Western blot of caspase 3 activation and PARP cleavage, KO99L cells", "format": "cell-based, murine", "conditions": "50.0 μM", "procedure": "as §1"}, "CHOP": {"system": "CHOP", "test": "Western blot of CHOP protein levels, KO99L cells", "format": "cell-based, murine", "conditions": "50.0 μM", "procedure": "as §1"}, "Bcl2 family members": {"system": "Bcl2 family members", "test": "Western blot of Bcl2 family members, KO99L cells", "format": "cell-based, murine", "procedure": "as §1"}, "[6]": {"system": "human Peripheral Blood Lymphocytes", "test": "Proliferative response of human PBL", "format": "cell-based", "conditions": "1.0 μM, positive inducer of cell death"}},
  "note": "Structures can show the parent of a compound that is named as a salt.",
  "data": [
    {"smiles": "Oc1cccc(-c2nc(N3CCOCC3)c3oc4ncccc4c3n2)c1", "note": "[PI103, 3-[4-(4-Morpholinylpyrido[3′,2′:4,5]furo[3,2-d]pyrimidin-2-yl]phenol hydrochloride, reference compound]", "values": [
      {"measurement": "caspase 3 processing and PARP cleavage (apoptosis)", "setting": "caspase 3 [1]", "value": "efficient cell death inducer"},
      {"measurement": "combination effect with COMPOUND-JP on metabolic activity/cell survival (Combination Index)", "setting": "KO99L cells [2]", "value": "less efficient"}
    ]},
    {"smiles": "O=C(C=Cc1ccccc1)NC(NC(=S)Nc1cccc2cccnc12)C(Cl)(Cl)Cl", "note": "(centres unmarked) [salubrinal, N-(2,2,2-trichloro-1-(3-(quinolin-8-yl)thioureido)ethyl)cinnamamide, reference compound]", "values": [
      {"measurement": "cell proliferation (BrdU incorporation or cell counting) in presence of COMPOUND-JP", "setting": "KO99L cells [3]", "value": "restored cell proliferation"},
      {"measurement": "cell death induced via COMPOUND-JP", "setting": "KO99L cells [4]", "value": "rescue KO99L cells against cell death"},
      {"measurement": "caspase 3 cleavage in presence of COMPOUND-JP", "setting": "caspase 3 [5]", "value": "decreased caspase 3 cleavage"},
      {"measurement": "effect on CHOP induction by COMPOUND-JP (10.0 μM)", "setting": "CHOP", "value": "offset CHOP induction"},
      {"measurement": "COMPOUND-JP induction of Bax, Bak, PUMA and Bim in presence of salubrinal", "setting": "Bcl2 family members", "value": "sensitive to inhibition of CHOP by salubrinal"}
    ]},
    {"smiles": "CN[C@@H]1C[C@H]2O[C@@](C)([C@@H]1OC)n1c3ccccc3c3c4c(c5c6ccccc6n2c5c31)C(=O)NC4", "note": "[staurosporine, reference compound]", "values": [
      {"measurement": "PBL cell proliferation", "setting": "[6]", "value": "strongly affected cell proliferation"}
    ]}
  ]
}
